# Results published in patent US11655210B2, “Compound for improving L-arginine bioavailability” (The General Hospital Corporation, priority 2018, dated 2023).
# Where two headings read alike, the source gives them in different places.
# What was measured:
# [1] = system: Human Brain Microvascular Endothelial Cells (HBMVEC); test: CellTox Green 24-hour dose dependent cytotoxicity assay; type: cell-based; settings: for toxicity in the cellular model: 100 nM, 10 μM, 100 μM, 0.5 mM
# Description: Cell cultures were prepared using the following general procedures.
# 1. Under aseptic conditions 1×20 mm sterile tissue culture dish was coated with sterile 1:100 collagen for two hours at room temperature.
# 2. Under aseptic conditions 2× sterile 96 well-plates were coated with sterile 50 μL 1:100 collagen for two hours at room temperature.
# 3. After 2 hr collagen was recollected into 50 mL conical tube.
# 4. The petri dish and 2×96 well-plates were washed with warmed PBS.
# 5. Once 60% confluency of HBMVEC was observed, the plate was prepped for passage.
# 6. Media was aspirated from dish and washed with 1×PBS.
# 7. 1 mL of Trypsin was added, and the plate was transferred to 37° C. incubator for 1-2 min until cells appeared detached.
# 8. The plate was transferred back into sterile conditions and 2 mL of EndoGro Basal Media was added to inhibit Trypsin reaction.
# 9. Cells were pipetted 20× and thoroughly mixed before transferring into 25 mL of EndoGro Basal Media.
# 10. 100 μL of this mixture was added into each well both 96 well-plate.
# 11. Left over 5.8 mL of cell solution was transferred to petri dish previously coated with collagen and washed with 1×PBS.
# 12. Plates were incubated for 48 hours at 37° C.
# The following procedures were performed for the cell cytotoxicity assay (CellTox™ Green Cytotoxicity Assay; Promega Corporation). See also CellTox™ Green Cytotoxicity Assay, Instructions for Use of Products G8741, G8742, G8743, and G8731, revised May 2015, the disclosure of which is incorporated herein by reference in its entirety.
# 1. Samples containing 1:1000 L-Arginine (L-Arg; 100 nM, 10 μM, 100 μM, or 0.5 mL) or 1:1000 of 2-amino-5-guanidino-N-(4-guanidinobutyl)pentanamide (Example 1; 100 nM, 10 μM, 100 μM, or 0.5 mL) were prepared with EndoGro Basal Media without supplements (MWOS) into sterile 10×1 mL microcentrifuge tubes. For concentrations of 0, 1:1000 PBS to MWOS was made.
# 2. […]
# 4. Once the wells were treated, plates were incubated at 37° C. for 24 hours and analyzed at 485-500 nm/520-530 nm after cytotoxicity assay treatment.
# [2] = system: NO production in Human Brain Microvascular Endothelial Cells (HBMVEC); test: In vitro NO detection assay (Nitric Oxide Cell-Based HTS Assay); settings: 100 nM to 0.5 mM, analyzed every 15 mins for 1 h, Example 1 versus L-arginine, FIGS. 3-4
# Description: “A” Bars: […]; “B” bars: 10 μM; “C” bars: 100 μM; “D” bars: 0.5 mM.
# The following general procedures were performed for the NO detection assay. See, e.g., Nitric Oxide Cell-Based HTS Assay Kit technical data sheet, Biovision Incorporated; Catalog #K979-10, September 2016, the disclosure of which is incorporated herein by reference in its entirety.
# 1. Performed cell culture protocol as described in Example 2.
# 2. Warmed all reagents in 37° C. water bath.
# 3. Master mix: 3 μL dye to 1.5 mL of Assay buffer for at least 60 wells.
# 4. Standard curve master mix: 5 μL NO stock solution to 95 μL NO Buffer for at least 60 wells.
# 5. Media was aspirated from column 1B-1G before aliquoting standard curve solution, as shown below in Table 2.
# 6. Media was aspirated from 2B-2G through 6B-G before 50 μL aliquots of staining dye. This step was repeated for […] through 10B-10G.
# 7. Plates were incubated for 1 hour in 37° C.
# 8. After 1 hour, plates were transferred back into sterile conditions and washed 2× with EndoGro Media (previously warmed to 37° C.) before aliquoting the concentrations shown in Table 3 into each well.
# 9. Plates were incubated at 37° C. and analyzed every 15 mins for 1 h.
# [3] = cited from earlier work; for baseline plasma concentration of L-arginine: normal diet over 8 hours
compound,measurement,setting,value
"N=C(N)NCCCCNC(=O)C(N)CCCNC(=N)N (centres unmarked) [Example 1, 2-amino-5-guanidino-N-(4-guanidinobutyl)pentanamide]",toxicity in the cellular model,[1],non-toxic
same,toxicity in comparison to L-arginine,[1]; FIG. 2,no significant difference in toxicity
same,capacity for mediating NO production,[2],nearly identical capacity for mediating NO production
N=C(N)NCCC[C@H](N)C(=O)O [L-arginine],toxicity in the cellular model,[1],non-toxic
same,capacity for mediating NO production,[2],nearly identical capacity for mediating NO production
same,baseline plasma concentration of L-arginine,[3]; converted value,~86.7 µM
same,baseline plasma concentration of L-arginine,[3],about 15.1±2.6 μg/mL
same,peak concentration,"[3]; single oral 10 g dose, converted value",~287.0 µM
same,absolute bioavailability,[3]; single oral 10 g dose,about 20%
same,peak concentration,[3]; single oral 10 g dose,50.0 µg/mL
same,time of peak concentration after administration,[3]; single oral 10 g dose,1 h
